From patent publication US12543736B2, “Herbicidal compositions comprising mesotrione” (BASF SE, priority 2024, dated 2026)

Legend:
[1] = system: Commelina benghalensis; assay: Example 4 post-emergence application A-1, B and C-19, COMBE; type: in vivo; settings: growth stage 13, 21 DAT, g ai/ha: A-1 1, B 50, C-19 30
Protocol: (§1) In the examples below, using the method of S. R. Colby (1967) “Calculating synergistic and antagonistic responses of herbicide combinations”, Weeds 15, p. 22ff., the value E, which is expected if the activity of the individual active compounds is only additive, was calculated:
(§2) [formula] • where • X=percent activity using active herbicide A at an application rate a; • Y=percent activity using active herbicide B (e.g. mesotrione) at an application rate b; • E=expected activity (in %) by A+B at application rates a+b.
(§3) If the value found experimentally is higher than the value E calculated according to Colby, a synergistic effect is present.
(§4) Evaluation was carried out using a scale from 0 to 100. 100 means no emergence of the plants, or complete destruction of at least the above-ground parts, and 0 means no damage or normal course of growth. A good herbicidal activity is given at values of at least 70, and very good herbicidal activity is given at values of at least 85.
(§5) Post-Emergence Application of Herbicide A-1 (A-1), Mesotrione (B) and Pyroxasulfone (C-19)
(§6) Herbicide A-1 (342 g/l), mesotrione (100 g/l) and pyroxasulfone (500 g/l) were, together with addition of 0.5 v/v % MSO (methylated sed oil) as adjuvant, formulated in water as distribution medium (water volume 200 l/ha) and sprayed with commercial flat fan nozzles.

[2] = system: Zea mays; assay: Example 4 post-emergence application A-1, B and C-19, ZEAMX; type: in vivo; settings: growth stage 12, 21 DAT, g ai/ha: A-1 2, B 50, C-19 30
Protocol: as §1, §2, §3, §4, §5, §6

With Cn1nc(C(F)(F)F)c(CS(=O)(=O)C2=NOC(C)(C)C2)c1OC(F)F [C-19, pyroxasulfone] the “% herbicidal activity” value [1] was 15% and the “% herbicidal activity” value [2] was 0%.
